Measurements as given in patent US11091451B2, “SHMT inhibitors and uses thereof” (Raze Therapeutics, Inc., priority 2016, dated 2021).

Columns and labels:
[1] = target: human cytosolic Serine Hydroxymethyl transferase 1 (SHMT1) (Homo sapiens (Human), UniProt P34896); experiment: SHMT1 activity inhibition assay (serine production from glycine and CH2-THF, mass spectroscopy); type: biochemical; conditions: 60 minutes at room temperature
From the text: (§1) Full length human cytosolic Serine Hydroxymethyl transferase 1 (SHMT1, residues 1-483 in Uniport ID P34896) was expressed as an N-terminal His6 tagged protein and purified in E. coli using nickel capture followed by size-exclusion chromatography. Human mitochondrial SHMT2 (residues 30-504 in Uniprot ID P34897) with mitochondrial leader sequence deleted was expressed as an N-terminal His6 tagged protein and purified in E. coli using nickel capture followed by size-exclusion chromatography.
(§2) Serine hydroxymethyltransferases catalyze the reversible hydroxymethylation of glycine to serine, with methylene tetrahydrofolate (CH2-THF) providing the additional carbon. SHMT1 and SHMT2 activity was determined by measuring serine production from glycine and CH2-THF using mass spectroscopy. Briefly, 15 ul of 0.5 mM glycine and 0.2 mM CH2-THF in 20 mM TEA, pH8.0, 0.2 mM NADPH were added to 384 well plate containing 0, 0.05 mM, 0.005 mM or 0.0005 mM of inhibitor. 15 ul of SHMT1 or 2 were added to initiate the reaction. The plate was incubated for 60 minutes at room temperature and the reaction was quenched by the addition of 30 ul of 10% trichloroacetic acid. Serine produced was analyzed using Rapidfire 360 and API4000^+ in the positive ion mode.

[2] = target: Human mitochondrial SHMT2 (Homo sapiens (Human), UniProt P34897); experiment: SHMT2 activity inhibition assay (serine production from glycine and CH2-THF, mass spectroscopy); type: biochemical; conditions: 60 minutes at room temperature
Chain of Human mitochondrial SHMT2 (P34897 30-504): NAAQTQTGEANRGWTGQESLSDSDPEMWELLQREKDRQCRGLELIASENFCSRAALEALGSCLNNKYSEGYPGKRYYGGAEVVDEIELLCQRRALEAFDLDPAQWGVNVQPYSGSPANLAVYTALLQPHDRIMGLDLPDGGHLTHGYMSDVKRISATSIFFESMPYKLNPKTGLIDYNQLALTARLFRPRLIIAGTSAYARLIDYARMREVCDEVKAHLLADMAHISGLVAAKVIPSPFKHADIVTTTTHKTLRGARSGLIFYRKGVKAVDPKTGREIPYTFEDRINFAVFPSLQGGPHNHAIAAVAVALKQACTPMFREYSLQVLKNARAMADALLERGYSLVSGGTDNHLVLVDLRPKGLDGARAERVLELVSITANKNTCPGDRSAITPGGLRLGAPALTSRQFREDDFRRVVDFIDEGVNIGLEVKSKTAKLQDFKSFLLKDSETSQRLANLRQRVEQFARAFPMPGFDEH
From the text: as §1
as §2, with “15 ul of SHMT1 or 2 were added to initiate the reaction.” left out

Chain of human cytosolic Serine Hydroxymethyl transferase 1 (SHMT1) (P34896 whole entry, the tested form may be a part): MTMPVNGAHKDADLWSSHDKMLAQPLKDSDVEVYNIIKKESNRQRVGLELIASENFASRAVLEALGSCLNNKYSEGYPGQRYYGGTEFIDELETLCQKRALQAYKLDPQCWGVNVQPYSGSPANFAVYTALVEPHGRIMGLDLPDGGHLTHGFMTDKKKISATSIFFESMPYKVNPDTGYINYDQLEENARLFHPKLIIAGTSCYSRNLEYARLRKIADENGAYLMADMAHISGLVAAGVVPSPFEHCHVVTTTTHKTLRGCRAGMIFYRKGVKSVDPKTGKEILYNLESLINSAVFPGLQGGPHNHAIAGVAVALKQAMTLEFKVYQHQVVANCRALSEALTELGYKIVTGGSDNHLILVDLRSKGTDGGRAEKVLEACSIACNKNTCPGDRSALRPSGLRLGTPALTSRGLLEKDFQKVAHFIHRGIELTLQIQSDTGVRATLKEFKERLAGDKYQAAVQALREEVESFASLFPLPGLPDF

## CC(C)(NC(=O)Cc1csc(-c2ccc(Cl)cc2Cl)n1)C(=O)O [Compound I-24]
[1]
  IC50: 1 to 10 µM
[2]
  IC50: < 1 µM

## CC(C)(NC(=O)Cc1cccc(-c2ccc(Cl)cc2-c2cccc(C(N)=O)c2)c1)C(=O)O [Compound I-19, 2-[[2-[3-[2-(3-Carbamoylphenyl)-4-chloro-phenyl]phenyl]acetyl]amino]-2-methyl-propanoic Acid]
[1]
  IC50: 1 to 10 µM
[2]
  IC50: < 1 µM

## O=C(O)CNC(=O)Cc1csc(-c2ccc(Cl)c(-c3ccccc3)c2)n1 [Compound I-36]
[1]
  IC50: 10 to 100 µM
[2]
  IC50: 10 to 100 µM

## CC(C)c1ccc(-c2nc(CC(=O)N[C@@H](Cc3ccccc3)C(=O)O)cs2)cc1 [Compound I-56]
[1]
  IC50: 100 to 500 µM
[2]
  IC50: 100 to 500 µM

## Cc1cccc(-c2cc(Cl)ccc2-c2nc(CC(=O)NC(C)(C)C(=O)O)cs2)c1 [Compound I-4]
[1]
  IC50: < 1 µM
[2]
  IC50: < 1 µM

## CC(C)c1ccc(-c2nc(CC(=O)N[C@@H](C(=O)O)c3ccccc3)cs2)cc1 [Compound I-54]
[1]
  IC50: 100 to 500 µM
[2]
  IC50: 100 to 500 µM

## CC(C)(NC(=O)Cc1csc(-c2ccc(Cl)cc2-c2ccccc2)n1)C(=O)O [Compound I-5]
[1]
  IC50: < 1 µM
[2]
  IC50: < 1 µM

## CC(C)(NC(=O)Cc1csc(-c2ccc(Cl)cc2C2CCNCC2)n1)C(=O)O [Compound I-31, 2-[[2-[2-[4-Chloro-2-(4-piperidyl)phenyl]thiazol-4-yl]acetyl]amino]-2-methyl-propanoic Acid]
[1]
  IC50: 10 to 100 µM
[2]
  IC50: 1 to 10 µM

## O=C(O)CNC(=O)Cc1csc(-c2ccc(Cl)cc2-c2ccccc2)n1 [Compound I-34, 2-[2-[2-(4-chloro-2-phenylphenyl)-1,3-thiazol-4-yl]acetamido]acetic Acid]
[1]
  IC50: 10 to 100 µM
[2]
  IC50: 10 to 100 µM

## CC(C)(NC(=O)Cc1csc(-c2ccc(Cl)cc2-c2cccc(Cl)c2)n1)C(=O)O [Compound I-6]
[1]
  IC50: < 1 µM
[2]
  IC50: < 1 µM

## O=C(O)CNC(=O)Cc1csc(-c2ccc(Cl)cc2Cl)n1 [Compound I-46]
[1]
  IC50: 10 to 100 µM
[2]
  IC50: 10 to 100 µM

## CC(C)(NC(=O)Cc1csc(-c2ccc(Cl)cc2-c2cccc(C#N)c2)n1)C(=O)O [Compound I-1, 2-[[2-[2-[4-Chloro-2-(3-cyanophenyl)phenyl]thiazol-4-yl]acetyl]amino]-2-methyl-propanoic Acid]
[1]
  IC50: < 1 µM
[2]
  IC50: < 1 µM

## O=C(O)CNC(=O)C(c1ccccc1)c1csc(-c2ccc(Cl)cc2Cl)n1 (stereo not shown) [Compound I-66]
[1]
  IC50: 100 to 500 µM
[2]
  IC50: > 500 µM

## CCc1cccc(-c2cc(Cl)ccc2-c2nc(CC(=O)NC(C)(C)C(=O)O)cs2)c1 [Compound I-12]
[1]
  IC50: 1 to 10 µM
[2]
  IC50: < 1 µM

## CC(C)C[C@H](NC(=O)Cc1csc(-c2ccc(Cl)cc2Cl)n1)C(=O)O [Compound I-47]
[1]
  IC50: 100 to 500 µM
[2]
  IC50: 100 to 500 µM

## CC(=O)N1CCC(c2cc(Cl)ccc2-c2nc(CC(=O)NC(C)(C)C(=O)O)cs2)CC1 [Compound I-11, 2-[[2-[2-[2-(1-Acetyl-4-piperidyl)-4-chloro-phenyl]thiazol-4-yl]acetyl]amino]-2-methyl-propanoic Acid]
[1]
  IC50: 1 to 10 µM
[2]
  IC50: < 1 µM

## CC(C)(C(=O)NCC(=O)O)c1csc(-c2ccc(Cl)cc2Cl)n1 [Compound I-64, 2-[2-[2-(2,4-dichlorophenyl)-1,3-thiazol-4-yl]-2-methylpropanamido]acetic Acid]
[1]
  IC50: 100 to 500 µM
[2]
  IC50: 100 to 500 µM

## O=C(O)CNC(=O)Cc1csc(-c2ccc(OC(F)(F)F)cc2)n1 [Compound I-50]
[1]
  IC50: 100 to 500 µM
[2]
  IC50: 100 to 500 µM

## O=C(Cc1csc(-c2cccc(Cl)c2)n1)N[C@@H](Cc1ccccc1)C(=O)O [Compound I-68]
[1]
  IC50: 100 to 500 µM
[2]
  IC50: 100 to 500 µM

## COc1cc(-c2nc(CC(=O)NC(C)(C)C(=O)O)cs2)c(-c2ccccc2)cc1Cl [Compound I-8, 2-[[2-[2-(4-chloro-5-methoxy-2-phenyl-phenyl)thiazol-4-yl]acetyl]amino]-2-methyl-propanoic Acid]
[1]
  IC50: < 1 µM
[2]
  IC50: < 1 µM

## O=C(O)CNC(=O)Cc1csc(-c2ccc(Cl)cc2CCO)n1 [Compound I-70, 2-(2-[2-[4-chloro-2-(2-hydroxyethyl)phenyl]-1,3-thiazol-4-yl]acetamido) acetic Acid]
[1]
  IC50: 100 to 500 µM
[2]
  IC50: 100 to 500 µM

## CC(C)c1cc(Cl)ccc1-c1nc(CC(=O)NC(C)(C)C(=O)O)cs1 [Compound I-25]
[1]
  IC50: 1 to 10 µM
[2]
  IC50: < 1 µM

## CC(C)(NC(=O)Cc1csc(-c2ccc(Cl)cc2-c2cccc3c2CCC3)n1)C(=O)O [Compound I-14]
[1]
  IC50: 1 to 10 µM
[2]
  IC50: < 1 µM

## CC(NC(=O)Cc1csc(-c2cccc(Br)c2)n1)C(=O)O (stereo not shown) [Compound I-43]
[1]
  IC50: 10 to 100 µM
[2]
  IC50: 10 to 100 µM

## O=C(Cc1csc(-c2cccc(Cl)c2)n1)N[C@@H](Cc1c[nH]c2ccccc12)C(=O)O [Compound I-49]
[1]
  IC50: 100 to 500 µM
[2]
  IC50: 100 to 500 µM

## NC(=O)Cc1cc(Cl)ccc1-c1nc(CC(=O)NCC(=O)O)cs1 [Compound I-65, 2-(2-[2-[2-(carbamoylmethyl)-4-chlorophenyl]-1,3-thiazol-4-yl]acetamido)acetic Acid]
[1]
  IC50: 100 to 500 µM
[2]
  IC50: 100 to 500 µM

## O=C(Cc1csc(-c2ccc(Cl)cc2Cl)n1)N[C@@H](C(=O)O)c1ccccc1 [Compound I-55]
[1]
  IC50: 100 to 500 µM
[2]
  IC50: 100 to 500 µM

## O=C(Cc1csc(-c2ccc(Cl)cc2Cl)n1)NC1(C(=O)O)CC1 [Compound I-45]
[1]
  IC50: 10 to 100 µM
[2]
  IC50: 10 to 100 µM

## O=C(Cc1csc(-c2cccc(Br)c2)n1)N[C@@H](Cc1ccccc1)C(=O)O [Compound I-52]
[1]
  IC50: 100 to 500 µM
[2]
  IC50: 100 to 500 µM

## CC(C)(NC(=O)Cc1cc(-c2ccc(Cl)cc2-c2ccccc2)ccn1)C(=O)O [Compound I-23]
[1]
  IC50: 1 to 10 µM
[2]
  IC50: 1 to 10 µM

## CC(C)(NC(=O)Cc1csc(-c2ccc(Cl)cc2-c2cccc3c2COC3)n1)C(=O)O [Compound I-7]
[1]
  IC50: < 1 µM
[2]
  IC50: < 1 µM

## CCc1cc(Cl)ccc1-c1nc(CC(=O)NC(C)(C)C(=O)O)cs1 [Compound I-27]
[1]
  IC50: 10 to 100 µM
[2]
  IC50: 1 to 10 µM

## C[C@H](NC(=O)Cc1csc(-c2ccccc2F)n1)C(=O)O [Compound I-71]
[1]
  IC50: 100 to 500 µM
[2]
  IC50: 100 to 500 µM

## CC(C)(NC(=O)Cc1csc(-c2ccc(Cl)cc2CC2CCC2)n1)C(=O)O [Compound I-10, 2-[[2-[2-[4-Chloro-2-(cyclobutylmethyl)phenyl]thiazol-4-yl]acetyl]amino]-2-methyl-propanoic Acid]
[1]
  IC50: < 1 µM
[2]
  IC50: < 1 µM

## CC(C)Cc1cc(Cl)ccc1-c1nc(CC(=O)NC(C)(C)C(=O)O)cs1 [Compound I-21]
[1]
  IC50: 1 to 10 µM
[2]
  IC50: < 1 µM

## COc1ccccc1-c1nc(CC(=O)NC(C)C(=O)O)cs1 (stereo not shown) [Compound I-61]
[1]
  IC50: 100 to 500 µM
[2]
  IC50: 10 to 100 µM

## CC[C@@H](C)[C@H](NC(=O)Cc1csc(-c2ccc(Cl)cc2Cl)n1)C(=O)O [Compound I-67]
[1]
  IC50: 100 to 500 µM
[2]
  IC50: 100 to 500 µM

## O=C(Cc1csc(-c2ccc(Cl)cc2)n1)N[C@@H](C(=O)O)c1ccccc1 [Compound I-63]
[1]
  IC50: 100 to 500 µM
[2]
  IC50: 100 to 500 µM

## CC(C)(NC(=O)Cc1cccc(-c2ccc(Cl)cc2)c1)C(=O)O [Compound I-30, 2-[2-[3-(4-chlorophenyl)phenyl]acetamido]-2-methylpropanoic Acid]
[1]
  IC50: 10 to 100 µM
[2]
  IC50: 1 to 10 µM

## O=C(Cc1csc(-c2ccc(Cl)cc2Cl)n1)NC1(C(=O)O)CCC1 [Compound I-28]
[1]
  IC50: 10 to 100 µM
[2]
  IC50: 1 to 10 µM

## Cc1ccc(-c2cc(Cl)ccc2-c2cccc(CC(=O)NC(C)(C)C(=O)O)c2)cc1 [Compound I-3, 2-[[2-[3-[4-Chloro-2-(p-tolyl)phenyl]phenyl]acetyl]amino]-2-methyl-propanoic Acid]
[1]
  IC50: < 1 µM
[2]
  IC50: < 1 µM

## CC[C@@H](C)[C@H](NC(=O)Cc1csc(-c2cccc(Cl)c2)n1)C(=O)O [Compound I-32]
[1]
  IC50: 10 to 100 µM
[2]
  IC50: 10 to 100 µM

## Cc1cccc(-c2cc(Cl)ccc2-c2nc(CC(=O)NC(C)(C)C(=O)O)cs2)c1C [Compound I-9]
[1]
  IC50: < 1 µM
[2]
  IC50: < 1 µM

## C[C@H](NC(=O)Cc1csc(-c2ccc(Cl)cc2Cl)n1)C(=O)O [Compound I-35]
[1]
  IC50: 10 to 100 µM
[2]
  IC50: 10 to 100 µM

## O=C(Cc1csc(-c2cccc(Br)c2)n1)NC(Cc1ccccc1)C(=O)O (stereo not shown) [Compound I-60]
[1]
  IC50: 100 to 500 µM
[2]
  IC50: 100 to 500 µM

## C[C@H](NC(=O)Cc1csc(-c2cccc(Br)c2)n1)C(=O)O [Compound I-39]
[1]
  IC50: 10 to 100 µM
[2]
  IC50: 10 to 100 µM

## O=C(O)CNC(=O)Cc1cccc(-c2ccc(Cl)cc2Cl)c1 [Compound I-41]
[1]
  IC50: 10 to 100 µM
[2]
  IC50: 10 to 100 µM
